In article PMC12699035, “Exploring market-approved azoles as potential breast cancer therapeutics targeting the VEGFR-2 biotarget” (Scientific Reports, 2025):

Key:
[1] = test system: Solid Ehrlich Carcinoma (SEC); test: In vivo anti-tumor activity in solid Ehrlich carcinoma (SEC)-bearing mice (tumor mass, volume, TIR%, hematology, histopathology)
Protocol: All experimental protocols were approved by the Research Ethics Committee and Institutional Animal Care and Use Committee, Faculty of Science, Suez Canal University with the ethical code (SCU-Sci-REC439/2025), and all methods were carried out according to the European Union guidelines and in accordance with ARRIVE guidelines. All animals were anesthetized using a combination of Xylazine 10 mg/kg- Ketamine 100 mg/kg of body weight, respectively, prior sacrifice via cervical decapitation.
In all graphs, treatments were administrated intraperitoneal (IP) with 6 mg/Kg B.Wt. for two weeks, day after day.
SIT, FLU and TNZ were tested using the five dose sigmoidal curves to determine the IC50 values. They were tested for the VEGFR2 inhibition using VEGFR2 Kinase Inhibition Assay Kit Catalog # 40325 BPS Bioscience, San Diego, CA. […] At the end of these experiment, anti-tumor potentiality was recorded using tumor weight (mg), tumor volume (mm^3), and the tumor inhibition ratio (TIR%). Hematological parameters of Hemoglobin (Hb, g/dL), RBC’s count (10^6/μL), and WBC’s count (10^3/μL) were investigated, along with histopathological and immunohistochemical staining of the VEGR2 protein.
Adult female Swiss albino mice purchased from Faculty of Pharmacy, Suez Canal University, Ismailia, Egypt, with an average body weight of (18-23) g was used. Mice were housed under constant conditions of 12 h light/dark cycle in a […], with free access to standard laboratory mice food and water. All procedures related to care and maintenance of the animals were performed according to the international guiding principles for animal research and approved by the Faculty of Pharmacy, Suez Canal University bioethics and animal ethics committee.
Solid Ehrlich carcinoma (SEC) was got from the National Cancer Institute (Cairo University, Egypt). The tumor cell line proliferated in mice through serial intraperitoneal (I.P.) transplantation of a volume of 0.2 mL physiological saline containing 1×10^6 viable cells for 24 h. SEC cells were collected 7 days after I.P. implantation. The harvested cells were diluted with saline to obtain a concentration of 5×10^6 viable SEC cells/mL. A volume of 0.2 mL saline contains 1×10^6 SEC cells that were I.P. implanted into each normal mouse. SEC cells (1×10^6 tumor cells/mouse) were implanted subcutaneously into the right thigh of the hind limb.
The experimental animals were randomly divided into four groups. Group 1 served as the normal saline control. Group 2 served as the SEC control (1×10^6 cells/mouse). Group 3 served as the ITR-treated group (6 mg/kg B.Wt., I.P.). […] Body weight and survival were recorded daily until the 24th day in both treated and control groups. At the end of the experiment, anesthetized animals were then sacrificed for evaluation of the antitumor activity and histopathological examination.
It includes tumor volume, weight, and tumor inhibition ratio (TIR%). Time interval measurements of tumor volume using a digital Vernier caliper (Tricle Brand, Shanghai, China). Measure tumor length and width using a clipper and then calculate tumor volume using formulations V = (L x W x W)/2, where V is tumor volume, W is tumor width, L is tumor length. While TIR% was calculated according to the following equation Tumor volume Control-Tumor volume (treated)Tumor volume (control)x 100.
Specimens of liver-sacrificed mice were fixed in 10% saline formalin. The fixed liver specimens were Dehydrated in ascending series of ethyl alcohol and embedded in paraffin.

[2] = test system: VEGF; test: Immunohistochemical staining of VEGF in SEC tumor sections; type: in vivo, mice; conditions: IHC of SEC tumor
From the text: VEGF has been considered a biomarker for VEGFR-2 bioactivity, as it binds to and activates this kinase receptor, playing a crucial role in angiogenesis. High VEGF levels are often associated with increased VEGFR-2 expression and activity, making VEGF a marker for VEGFR-2's function and tumor growth. […] The staining intensity is strong (+ 3), with dark brown cytoplasmic staining in most tumor cells. The immunoreactive score (IRS), calculated by multiplying the staining intensity score and the percentage of positive cells, is 9–12, indicating a high level of VEGF expression. This intense VEGF expression correlates with the presence of numerous irregular and dilated blood vessels in the tumor microenvironment.
The paraffin-infiltrated tissue was sliced into thin sections (4-6 μm) using a microtome and floated in a water bath. The sections were then mounted onto charged slides and left to dry overnight. The use of charged slides ensures the sections adhere properly to the slide. To carry out antibody staining, the paraffin wax was removed from the sample, and the tissue was rehydrated. The paraffin was eliminated by placing the tissue sections in three containers of xylene for 5 minutes each. Rehydration began by immersing the sections in two containers of 100% ethanol for 10 minutes each, followed by two containers of 95% ethanol for 10 minutes each. Finally, to complete the rehydration, the sections were washed twice in deionized water for 5 minutes each.
For antigen retrieval, the slides are heated in 10 mM Tris/1 mM EDTA, pH 9.0, kept at a sub-boiling temperature for 18 minutes, and then allowed to cool at room temperature for 30 minutes. For chromogenic staining detection, the sections are rinsed in deionized water three times for 5 minutes each, and then the endogenous peroxidase activity in the tissue sections is quenched to prevent high background staining by incubating the sections in 3% hydrogen peroxide for 10 minutes. Afterward, the sections are washed twice in deionized water for 5 minutes each, followed by a single wash in wash buffer for 5 minutes. A hydrophobic pen is used to carefully draw a large circle around the sample, ensuring it doesn’t touch the sample, creating a hydrophobic boundary to achieve optimal antibody staining quality. To prevent non-specific antibodies from binding to the tissue, each section is blocked with 100–400 µl of blocking solution for 1 hour at room temperature in a humidified chamber. The blocking solution was discarded, and 100–400 µl of diluted primary antibody was applied. […]
The slides were incubated overnight at 4°C in a humidified chamber. […] Then, 100–400 µl of Signal Stain DAB was applied to each section and monitored closely for 1–10 minutes until an acceptable staining intensity was achieved. […]

## CNC(=O)c1cc(Oc2ccc(NC(=O)Nc3ccc(Cl)c(C(F)(F)F)c3)cc2)ccn1 [Sorafenib]
[1]; 6 mg/Kg B.Wt. IP, two weeks, day after day, SEC control 469 mg
  solid tumor mass: 229 mg
[1]; 6 mg/Kg B.Wt. IP, two weeks, day after day, SEC control 420 mm^3
  tumor volume: 214 mm^3
[1]; 6 mg/Kg IP, normal 5, SEC control 9.2
  WBC's count: 6.6 10^3/µL
[1]; 6 mg/Kg IP, normal 6.9, SEC control 3.1
  RBC's count: 4.9 10^6/µL
[1]; 6 mg/Kg IP, normal 11.6, SEC control 4.6
  Hemoglobin level: 6.9 g/dL
[1]; isolated tumor mass, SEC control 2.2 cm^2
  Tumor cell density (histopathology of SEC mass): 0.5 cm^2
[2]; scale 0-12, SEC control 9–12
  immunoreactive score (IRS): 1–2
[2]; SEC control 80–90%
  percentage of VEGF-positive tumor cells: 10–30%
